Patent US9758527B2, “Cyclohexene derivative, preparation method therefor, and pharmaceutical composition for preventing or treating metabolic diseases, containing same as active ingredient” (HYUNDAI PHARM CO., LTD., priority 2014, dated 2017)
Like-named read-outs stand apart in the source and are kept apart here.

How the values were obtained:
blood glucose level = assay: Oral glucose tolerance test (OGTT) in high-fat diet model; assay type: in vivo; conditions: hypoglycemic level, 20 mg/kg oral, glucose 2 g/kg oral after 30 minutes; for inhibition in vivo at 20 mg/kg: Mus musculus, 2 h, read-out: % AUC
Description: To evaluate in vivo effective effects of the cyclohexene derivatives according to the present invention, experiments were carried out, as follows.
Specifically, male C57BL/6J (C57 black 6) […] (8 to 10 weeks old) in a high-fat diet model were acclimated for at least 7 days, and only healthy rat populations were selected and subjected to an oral glucose tolerance test (OGTT). The rats were fasted for 12 to 15 hours, and then randomly divided into groups with five rats per group. Thereafter, each of the compounds of Examples 1, 14, 48, 69, 80, 118, 139, 147, 148, 169, 190, 199, 200, 204, 227, and Comparative Examples 1 and 2 according to the present invention was administered to the rats at a dose of 20 mg/kg. In this case, a vehicle (0.5%, carboxymethyl cellulose (CMC)) was administered as an untreated group, and the dose of the compound administered together with the vehicle was orally administered at 10 ml/kg. After 30 minutes of administration, glucose (2 g/kg) was orally administered at a dose of 10 ml/kg. A blood glucose level was measured using an Accu-Chek Active Strip (Rosche Diagnostic Co.). In this case, the glucose level in blood collected via caudal venipuncture was measured at time points of −30, 0, 20, 40, 60, and 120 minutes after glucose administration.
In Table 3, the unit “% AUC (area under the curve)” represents a hypoglycemic level.

[1] = biological target: T1, G protein-coupled receptor 119 (GPR-119) (Mesocricetus auratus, UniProt A0A1U8CD06); assay: Evaluation of cAMP activity in HIT-T15 cells (HTRF cAMP dynamic kit); assay type: cell-based, hamster; conditions: cAMP activation
T1 construct: hamster-derived β-cells containing G protein-coupled receptor 119 (GPR-119), HIT-T15 cells; host or cells: HIT-T15 (hamster pancreatic β-cells)
T1 sequence (A0A1U8CD06 1-334): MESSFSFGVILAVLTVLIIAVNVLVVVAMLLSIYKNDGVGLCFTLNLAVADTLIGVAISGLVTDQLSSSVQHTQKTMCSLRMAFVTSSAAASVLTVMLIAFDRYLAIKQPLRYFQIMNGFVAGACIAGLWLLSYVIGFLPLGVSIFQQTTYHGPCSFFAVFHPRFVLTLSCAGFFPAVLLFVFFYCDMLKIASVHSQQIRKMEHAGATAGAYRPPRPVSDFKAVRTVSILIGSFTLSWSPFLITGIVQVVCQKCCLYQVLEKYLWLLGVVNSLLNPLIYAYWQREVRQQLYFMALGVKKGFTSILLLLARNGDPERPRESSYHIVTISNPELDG
Method in brief: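 HIT-T15 cells, 60,000/well, treated next day with compound at six concentrations ([…]) for 1 h at 37° C. Lysate cAMP quantified by HTRF competitive immunoassay (D2-cAMP, cryptate anti-cAMP); activity taken as change in FRET signal relative to DMSO.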

[2] = EC50 (nM), 1 h at 37° C., six concentrations
[3] = 1 h at 37° C., six concentrations, read-out: EC50

CC(C)c1noc(C2CCN(c3ncnc(Nc4ccc(S(C)(=O)=O)cc4F)c3[N+](=O)[O-])CC2)n1 [Comparative Example 1, N-(2-fluoro-4-methylsulfonylphenyl)-5-nitro-6-[4-(3-propan-2-yl-1,2,4-oxadiazol-5-yl)piperidin-1-yl]pyrimidine-4-amine, reference compound]
inhibition in vivo at 20 mg/kg (blood glucose level): 13.5%

CC(C)c1noc(N2CCC(COc3ccc(-c4ccc(S(C)(=O)=O)cc4)nc3)CC2)n1 [Comparative Example 2, 2-(4-methanesulfonylphenyl)-5-({1-[3-(propan-2-yl)-1,2,4-oxadiazol-5-yl]piperidin-4-yl}methoxy)pyridine, reference compound]
EC50 [1, 2]: 49 nM | inhibition in vivo at 20 mg/kg (blood glucose level): 15.3%

C[C@H](CO)NC(=O)C1CC=C(c2ccc(OCC3CCN(C(=O)OC(C)(C)C)CC3)cc2)CC1 (stereo partly drawn) [Example 1, tert-butyl 4-((4-(4-((R)-1-hydroxypropan-2-ylcarbamoyl)cyclohex-1-enyl)phenoxy)methyl)piperidine-1-carboxylate]
EC50 [1, 3]: 65 nM | inhibition in vivo at 20 mg/kg (blood glucose level): 28.5%

CC(C)(C)OC(=O)N1CCC(COc2ccc(C3=CCC(C(=O)NC(CO)CO)CC3)nc2)CC1 (centres unmarked) [Example 14, tert-butyl 4-((6-(4-(1,3-dihydroxypropan-2-ylcarbamoyl)cyclohex-1-enyl)pyridin-3-yloxy)methyl)piperidine-1-carboxylate]
EC50 [1, 3]: 650 nM | inhibition in vivo at 20 mg/kg (blood glucose level): 21.9%

CC(C)(C)OC(=O)N1CCC(COc2ccc(C3=CCC(C(=O)N4CCOCC4)CC3)cc2F)CC1 (centres unmarked) [Example 69, tert-butyl 4-((2-fluoro-4-(4-(morpholine-4-carbonyl)cyclohex-1-enyl)phenoxy)methyl)piperidine-1-carboxylate]
EC50 [1, 3]: 7 nM | EC50 ([1]; read-out: EC50 value): ≤ 50 nM | inhibition in vivo at 20 mg/kg (blood glucose level): 19.1%

CC(C)c1noc(N2CCC(COc3ccc(C4=CCC(C(=O)NC(CO)CO)CC4)cc3F)CC2)n1 (centres unmarked) [Example 80, N-(1,3-dihydroxypropan-2-yl)-4-(3-fluoro-4-((1-(3-isopropyl-1,2,4-oxadiazol-5-yl)piperidin-4-yl)methoxy)phenyl)cyclohex-3-enecarboxamide]
EC50 [1, 3]: 89 nM | inhibition in vivo at 20 mg/kg (blood glucose level): 19.7%

CCc1cnc(N2CCC(COc3ccc(C4=CCC(C(=O)N5CCC[C@@H]5CO)CC4)cc3)CC2)nc1 (stereo partly drawn) [Example 118, (4-(4-((1-(5-ethylpyrimidin-2-yl)piperidin-4-yl)methoxy)phenyl)cyclohex-3-enyl)((R)-2-(hydroxymethyl)pyrrolidin-1-yl)methanone]
EC50 [1, 3]: 31 nM | EC50 ([1]; read-out: EC50 value): ≤ 50 nM | inhibition in vivo at 20 mg/kg (blood glucose level): 23.5%

CC(C)c1noc(N2CCC(COc3ccc(C4=CCC(C(=O)NCC(=O)N5CCC[C@H]5C#N)CC4)cc3F)CC2)n1 (stereo partly drawn) [Example 139, N-(2-((S)-2-cyanopyrrolidin-1-yl)-2-oxoethyl)-4-(3-fluoro-4-((1-(3-isopropyl-1,2,4-oxadiazol-5-yl)piperidin-4-yl)methoxy)phenyl)cyclohex-3-enecarboxamide]
EC50 [1, 3]: 130 nM | inhibition in vivo at 20 mg/kg (blood glucose level): 25.4%

CC(C)(C)OC(=O)N1CCC(COc2ccc(C3=CCC(C(=O)NCCO)CC3)cc2)CC1 (centres unmarked) [Example 190, tert-butyl 4-((4-(4-(2-hydroxyethylcarbamoyl)cyclohex-1-enyl)phenoxy)methyl)piperidine-1-carboxylate]
% AUC (blood glucose level): 20.9 % AUC

CCO/N=C1/CCN(C(=O)C2CC=C(c3ccc(OCC4CCN(c5ncc(CC)cn5)CC4)cc3)CC2)C1 (centres unmarked) [Example 269, (3-(ethoxyimino)pyrrolidin-1-yl)(4-(4-((1-(5-ethylpyrimidin-2-yl)piperidin-4-yl)methoxy)phenyl)cyclohex-3-enyl)methanone]
EC50 [1, 3]: 35 nM | EC50 ([1]; read-out: EC50 value): ≤ 50 nM

CON=C1CCN(C(=O)C2CC=C(c3ccc(OCC4CCN(C(=O)OC(C)(C)C)CC4)cc3)CC2)CC1 (centres unmarked) [Example 270, tert-butyl 4-((4-(4-(4-(methoxyimino)piperidine-1-carbonyl)cyclohex-1-enyl)phenoxy)methyl)piperidine-1-carboxylate]
EC50 [1, 3]: 12 nM

CC(C)(C)OC(=O)N1CCC(COc2ccc(C3=CCC(C(=O)N4CCC(=NO)CC4)CC3)cc2)CC1 (centres unmarked) [Example 271, tert-butyl 4-((4-(4-(4-(hydroxyimino)piperidine-1-carbonyl)cyclohex-1-enyl)phenoxy)methyl)piperidine-1-carboxylate]
EC50 [1, 3]: 13 nM | EC50 ([1]; read-out: EC50 value): ≤ 50 nM

CC(C)(C)OC(=O)N1CCC(COc2ccc(C3=CCC(C(=O)N4CCC(=O)CC4)CC3)cc2)CC1 (centres unmarked) [Example 272, tert-butyl 4-((4-(4-(4-oxopiperidine-1-carbonyl)cyclohex-1-enyl)phenoxy)methyl)piperidine-1-carboxylate]
EC50 [1, 2]: 33 nM | EC50 ([1]; EC50 value): ≤ 50 nM

CO/N=C1\CCN(C(=O)C2CC=C(c3ccc(OCC4CCN(C(=O)OC(C)(C)C)CC4)cc3)CC2)C1 (centres unmarked) [Example 273, tert-butyl 4-((4-(4-(3-(methoxyimino)pyrrolidine-1-carbonyl)cyclohex-1-enyl)phenoxy)methyl)piperidine-1-carboxylate]
EC50 [1, 3]: 11 nM | EC50 ([1]; read-out: EC50 value): ≤ 50 nM

CCc1cnc(N2CCC(COc3ccc(C4=CCC(C(=O)N5CCC(=O)CC5)CC4)cc3)CC2)nc1 (centres unmarked) [Example 274, 1-(4-(4-((1-(5-ethylpyrimidin-2-yl)piperidin-4-yl)methoxy)phenyl)cyclohex-3-enecarbonyl)piperidin-4-one]
EC50 [1, 2]: 27 nM | EC50 ([1]; EC50 value): ≤ 50 nM

CC(C)c1noc(N2CCC(COc3ccc(C4=CCC(C(=O)N5CCC(=O)CC5)CC4)cc3)CC2)n1 (centres unmarked) [Example 275, 1-(4-(4-((1-(3-isopropyl-1,2,4-oxadiazol-5-yl)piperidin-4-yl)methoxy)phenyl)cyclohex-3-enecarbonyl)piperidin-4-one]
EC50 [1, 2]: 28 nM | EC50 ([1]; EC50 value): ≤ 50 nM

CC(C)c1noc(N2CCC(COc3ccc(C4=CCC(C(=O)N5CCC(=NO)CC5)CC4)cc3)CC2)n1 (centres unmarked) [Example 276, (4-(hydroxyimino)piperidin-1-yl)(4-(4-((1-(3-isopropyl-1,2,4-oxadiazol-5-yl)piperidin-4-yl)methoxy)phenyl)cyclohex-3-enyl)methanone]
EC50 [1, 3]: 29 nM

CON=C1CCN(C(=O)C2CC=C(c3ccc(OCC4CCN(c5nc(C(C)C)no5)CC4)cc3)CC2)CC1 (centres unmarked) [Example 278, (4-(4-((1-(3-isopropyl-1,2,4-oxadiazol-5-yl)piperidin-4-yl)methoxy)phenyl)cyclohex-3-enyl)(4-(methoxyimino)piperidin-1-yl)methanone]
EC50 [1, 3]: 18 nM | EC50 ([1]; read-out: EC50 value): ≤ 50 nM

CON=C1CN(C(=O)C2CC=C(c3ccc(OCC4CCN(c5nc(C(C)C)no5)CC4)cc3)CC2)C1 (centres unmarked) [Example 286, (4-(4-((1-(3-isopropyl-1,2,4-oxadiazol-5-yl)piperidin-4-yl)methoxy)phenyl)cyclohex-3-enyl)(3-(methoxyimino)azetidin-1-yl)methanone]
EC50 [1, 3]: 37 nM | EC50 ([1]; read-out: EC50 value): ≤ 50 nM

CC(C)c1noc(N2CCC(COc3ccc(C4=CCC(C(=O)N5CC(O)C5)CC4)cc3)CC2)n1 (centres unmarked) [Example 289, (3-hydroxyazetidin-1-yl)(4-(4-((1-(3-isopropyl-1,2,4-oxadiazol-5-yl)piperidin-4-yl)methoxy)phenyl)cyclohex-3-enyl)methanone]
EC50 [1, 3]: 32 nM | EC50 ([1]; read-out: EC50 value): ≤ 50 nM
